Our source for the inhibition values is patent US20100137313A1 (ASTRAZENECA AB, priority 2008, published 2010).

S. pneumoniae Topoisomerase IV ATPase (ParE), sequence (Q59961 whole entry): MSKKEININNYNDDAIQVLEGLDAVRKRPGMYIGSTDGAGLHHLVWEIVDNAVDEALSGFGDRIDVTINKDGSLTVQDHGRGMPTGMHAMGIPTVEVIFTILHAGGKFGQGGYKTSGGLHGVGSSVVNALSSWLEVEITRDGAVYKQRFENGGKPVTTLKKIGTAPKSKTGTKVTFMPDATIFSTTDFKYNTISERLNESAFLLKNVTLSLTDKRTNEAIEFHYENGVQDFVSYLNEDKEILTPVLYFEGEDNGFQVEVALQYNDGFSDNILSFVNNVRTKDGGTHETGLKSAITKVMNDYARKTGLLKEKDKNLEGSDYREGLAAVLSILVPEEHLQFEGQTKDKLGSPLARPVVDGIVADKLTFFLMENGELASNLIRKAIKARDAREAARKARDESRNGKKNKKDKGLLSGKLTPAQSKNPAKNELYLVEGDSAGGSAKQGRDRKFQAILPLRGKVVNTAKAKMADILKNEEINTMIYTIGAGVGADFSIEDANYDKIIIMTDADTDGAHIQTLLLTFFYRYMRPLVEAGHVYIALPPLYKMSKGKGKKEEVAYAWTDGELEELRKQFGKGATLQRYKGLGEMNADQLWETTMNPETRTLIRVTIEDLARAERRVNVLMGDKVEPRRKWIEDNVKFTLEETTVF

The experiment concerns the target S. pneumoniae Topoisomerase IV ATPase (ParE) (Streptococcus pneumoniae serotype 4, UniProt Q59961). Nature of the experiment: S. pneumoniae Topoisomerase IV ATPase inhibition. Particulars: values marked * are an average of two or more data points, read-out: % Inh (13 μM) of S. pneumoniae Topoisomerase IV ATPase. It counts as biochemical. How it is done:
S. pneumoniae Topoisomerase IV ATPase Inhibition Activity: Compounds may be tested for inhibition of S. pneumoniae ParE ATPase activity using an ammonium molybdate/malachite green-based phosphate detection assay (Lanzetta, P. A., L. J. Alvarez, P. S. Reinach, and O. A. Candia, 1979, 100: 95-97). Assays are performed in multiwell plates in 30 μl reactions containing: 20 mM Tris buffer pH 8.0, 50 mM ammonium acetate, 8.0 mM magnesium chloride, 0.5 mM ethylenediaminetetraacetic acid, 5% glycerol, 5 mM 1,4-Dithio-DL-threitol, 0.005% Brij-35, 5 μg/ml sheared salmon sperm DNA, 1.25 nM S. pneumoniae ParE, 160 μM ATP, and test compound in dimethylsulfoxide. Reactions are quenched with 30 μl of ammonium molybdate/malachite green detection reagent containing 1.2 mM malachite green hydrochloride, 8.5 mM ammonium molybdate tetrahydrate, and 1 M hydrochloric acid. Plates are read in an absorbance plate reader at 650 nm and percent inhibition values are calculated using dimethylsulfoxide (2%)-containing reactions as 0% inhibition and EDTA-containing ([…]) reactions as 100% inhibition controls. An IC50 measurement of compound potency for each compound can be determined from reactions performed in the presence of 10 different compound concentrations.
Many of the compounds of the invention were tested in an assay substantially similar to the assays described above for measuring the inhibition of E.coli GyrB ATPase, E. coli Topoisomerase IV ATPase, S. aureus GyrB ATPase, and S. pneumoniae Topoisomerase IV ATPase, and had IC50 values of <200 μM in one or more assays.
Turning to `CC(=O)c1cccc(Nc2ncc(-c3cccc(/C=C/C(=O)O)c3)c(-n3ccc(C(F)(F)F)n3)n2)c1` [Example 688, (2E)-3-(3-{2-[(3-acetylphenyl)amino]-4-[3-(trifluoromethyl)-1H-pyrazol-1-yl]pyrimidin-5-yl}phenyl)prop-2-enoic acid], the inhibition at 13 µM is 99%.

As for `CCOC(=O)/C=C/c1cccc(-c2cnc(Nc3ccc(F)c(Cl)c3)nc2NCc2cnn(C)c2)c1` [Example 168, (E)-ethyl 3-(3-(2-(3-chloro-4-fluorophenylamino)-4-((1-methyl-1H-pyrazol-4-yl)methylamino)pyrimidin-5-yl)phenyl)acrylate], the inhibition at 13 µM was 66.4%.

In the case of `Fc1ccc(Nc2ncc(-c3cncnc3)c(NCc3ccccn3)n2)cc1Cl` [Example 38, N^2-(3-chloro-4-fluorophenyl)-N^4-(pyridin-2-ylmethyl)-5-pyrimidin-5-ylpyrimidine-2,4-diamine], the inhibition at 13 µM is 62.3%.

Turning to `COc1cc(Nc2ncc(-c3cc(C(=O)NS(C)(=O)=O)c(=O)n(C)c3)c(-n3ccc(C(F)(F)F)n3)n2)cc(OC)c1` [Example 1019, 5-(2-(3,5-Dimethoxyphenylamino)-4-(3-(trifluoromethyl)-1H-pyrazol-1-yl)pyrimidin-5-yl)-1-methyl-N-(methylsulfonyl)-2-oxo-1,2-dihydropyridine-3-carboxamide], the inhibition at 13 µM came out at 100%.

As to `COc1cc(Nc2ncc(-c3cnc(OCCNC(C)=O)c(C(=O)NS(C)(=O)=O)c3)c(-n3nc(C(F)(F)F)cc3C)n2)cc(OC)c1` [Example 969, 2-(2-acetamidoethoxy)-5-(2-(3,5-dimethoxyphenylamino)-4-(5-methyl-3-(trifluoromethyl)-1H-pyrazol-1-yl)pyrimidin-5-yl)-N-(methylsulfonyl)nicotinamide], the inhibition at 13 µM was determined as 100%.

As to `CCOC(=O)c1cncc(-c2cnc(Nc3ccc(F)c(Cl)c3)nc2N[C@H](C)C(=O)OC)c1` [Example 113, ethyl 5-[2-[(3-chloro-4-fluorophenyl)amino]-4-[[(2R)-1-methoxy-1-oxopropan-2-yl]amino]pyrimidin-5-yl]pyridine-3-carboxylate], the inhibition at 13 µM was 34.3%.

As to `CCOC(=O)c1cncc(-c2cnc(Nc3ccc(F)c(Cl)c3)nc2NCCCc2nc3ccccc3[nH]2)c1` [Example 140, ethyl 5-(4-(3-(1H-benzo[d]imidazol-2-yl)propylamino)-2-(3-chloro-4-fluorophenylamino)pyrimidin-5-yl)nicotinate], the inhibition at 13 µM was 83.5%.

For the molecule `COc1cc(Nc2ncc(-c3cc(C(=O)O)c(=O)n(CCS(C)(=O)=O)c3)c(-n3ccc(C(F)(F)F)n3)n2)cc(OC)c1` [Example 1095, 5-(2-(3,5-dimethoxyphenylamino)-4-(3-(trifluoromethyl)-1H-pyrazol-1-yl)pyrimidin-5-yl)-1-(2-(methylsulfonyl)ethyl)-2-oxo-1,2-dihydropyridine-3-carboxylic acid], the inhibition at 13 µM came to 100%.

With `CCOC(=O)c1cncc(-c2cnc(Nc3ccc(F)c(Cl)c3)nc2NCc2cncn2C)c1` [Example 145, ethyl 5-(2-(3-chloro-4-fluorophenylamino)-4-((1-methyl-1H-imidazol-5-yl)methylamino)pyrimidin-5-yl) nicotinate], the inhibition at 13 µM came to 77.4%.

Turning to `COc1cc(Nc2ncc(-c3ccc4c(c3)C(=O)NS4(=O)=O)c(-n3ccc(C(F)(F)F)n3)n2)cc(OC)c1` [Example 831, 5-{2-[(3,5-dimethoxyphenyl)amino]-4-[3-(trifluoromethyl)-1H-pyrazol-1-yl]pyrimidin-5-yl}-1,2-benzothiazol-3(2H)-one 1,1-dioxide], the inhibition at 13 µM was found to be 89%.

As for `Cc1ccc(Nc2ncc(-c3ccc(C(=O)O)s3)c(NCCCN(C)C)n2)cc1C#N` [Example 337, 5-(2-(3-cyano-4-methylphenylamino)-4-(3-(dimethylamino)propylamino)pyrimidin-5-yl) thiophene-2-carboxylic acid], the inhibition at 13 µM is 64.4%.

For the molecule `CCCNc1nc(Nc2ccc(F)c(Cl)c2)ncc1-c1cncc(C(=O)OCC)c1` [Example 90, 5-[2-(3-Chloro-4-fluoro-phenylamino)-4-propylamino-pyrimidin-5-yl]-nicotinic acid ethyl ester], the inhibition at 13 µM amounted to 24.6%.

`O=C(O)/C=C/c1cccc(-c2cnc(Nc3ccc(F)c(Cl)c3)nc2-n2ccc(C3CC3)n2)c1` [Example 875, (E)-3-(3-(2-(3-chloro-4-fluorophenylamino)-4-(3-cyclopropyl-1H-pyrazol-1-yl)pyrimidin-5-yl)phenyl)acrylic acid]: the inhibition at 13 µM is 98%.

In the case of `O=C(NCCO)c1cccc(-c2cnc(Nc3ccc(F)c(Cl)c3)nc2-n2ccc(C(F)(F)F)n2)c1` [Example 1146, 3-(2-(3-chloro-4-fluorophenylamino)-4-(3-(trifluoromethyl)-1H-pyrazol-1-yl)pyrimidin-5-yl)-N-(2-hydroxyethyl)benzamide], the inhibition at 13 µM was found to be 100%.

With `O=C(O)c1cncc(-c2cnc(Nc3ccc(F)c(Cl)c3)nc2NCCCN2CCOCC2)c1` [Example 233, 5-[2-[(3-chloro-4-fluorophenyl)amino]-4-(3-morpholin-4-ylpropylamino)pyrimidin-5-yl]pyridine-3-carboxylic acid], the inhibition at 13 µM was determined as 75.4%.

With `COc1cc(Nc2ncc(-c3cncc(C(=O)O)c3)c(N3CCOCC3)n2)cc(-n2nnnc2C)c1` [Example 445], the inhibition at 13 µM was 34%.

As for `CONC(=O)c1cncc(-c2cnc(Nc3cc(OC)cc(OC)c3)nc2-n2ccc(C(F)(F)F)n2)c1` [Example 680, 5-{2-[(3,5-dimethoxyphenyl)amino]-4-[3-(trifluoromethyl)-1H-pyrazol-1-yl]pyrimidin-5-yl}-N-methoxypyridine-3-carboxamide], the inhibition at 13 µM came to 100%.

For the molecule `CNC(=O)/C=C/c1cccc(-c2cnc(Nc3cc(OC)cc(C(F)(F)F)c3)nc2NCCc2ccncc2)c1` [Example 372], the inhibition at 13 µM worked out at 80.9%.

In the case of `O=C(O)c1cncc(-c2cnc(Nc3ccc(F)c(Cl)c3)nc2NCCc2nc3ccccc3[nH]2)c1` [Example 258, 5-(4-{[2-(1H-benzimidazol-2-yl)ethyl]amino}-2-[(3-chloro-4-fluorophenyl)amino]-pyrimidin-5-yl)pyridine-3-carboxylic acid], the inhibition at 13 µM was 88%.

As for `CC(=O)N1CCN(c2nc(Nc3ccc(F)c(Cl)c3)ncc2-c2ccc(C(=O)O)s2)CC1` [Example 982, 5-(4-(4-Acetylpiperazin-1-yl)-2-(3-chloro-4-fluorophenylamino)pyrimidin-5-yl)thiophene-2-carboxylic acid], the inhibition at 13 µM came to 100%.

In the case of `CCOC(=O)c1cncc(-c2cnc(Nc3ccc(F)c(Cl)c3)nc2N2CCCC(CO)C2)c1` (stereo not shown) [Example 118, ethyl 5-[2-[(3-chloro-4-fluorophenyl)amino]-4-[3-(hydroxymethyl)piper-idin-1-yl]pyrimidin-5-yl]pyridine-3-carboxylate], the inhibition at 13 µM was 80.6%.

Regarding `CCOC(=O)/C=C/c1cccc(-c2cnc(Nc3ccc(F)c(Cl)c3)nc2NCc2cncn2C)c1` [Example 172, (E)-ethyl 3-(3-(2-(3-chloro-4-fluorophenylamino)-4-((1-methyl-1H-imidazol-5-yl)methylamino)pyrimidin-5-yl)phenyl)acrylate], the inhibition at 13 µM is -32.8%.

`O=C(O)c1cc(-c2cnc(Nc3ccc(F)c(Cl)c3)nc2-n2ccc(C(F)(F)F)n2)cnc1OCC(F)(F)F` [Example 1135, 5-(2-(3-chloro-4-fluorophenylamino)-4-(3-(trifluoromethyl)-1H-pyrazol-1-yl)pyrimidin-5-yl)-2-(2,2,2-trifluoroethoxy)nicotinic acid]: the inhibition at 13 µM was determined as 100%.

`CCOC(=O)c1cncc(-c2cnc(Nc3ccc(F)c(Cl)c3)nc2NCCOc2ccccc2)c1` [Example 112]: the inhibition at 13 µM was determined as 0.15%.

As for `O=C(O)c1cn(CCN2CCOCC2)c2ccc(-c3cnc(Nc4ccc(F)c(Cl)c4)nc3-n3ccc(C(F)(F)F)n3)cc2c1=O` [Example 1069, 6-(2-(3-Chloro-4-fluorophenylamino)-4-(3-(trifluoromethyl)-1H-pyrazol-1-yl)pyrimidin-5-yl)-1-(2-morpholinoethyl)-4-oxo-1,4-dihydroquinoline-3-carboxylic acid], the inhibition at 13 µM stood at 100%.

`OC1CCN(c2nc(Nc3ccc(F)c(Cl)c3)ncc2-c2cncnc2)C1` (stereo not shown) [Example 66, 1-[2-[(3-chloro-4-fluorophenyl)amino]-5-pyrimidin-5-ylpyrimidin-4-yl]pyrrolidin-3-ol]: the inhibition at 13 µM came out at 62.1%.

Consider `COc1cc(Nc2ncc(-c3cncc(C(=O)NCCO)c3)c(-n3nc(C(F)(F)F)cc3C)n2)cc(OC)c1` [Example 683, 5-{2-[(3,5-dimethoxyphenyl)amino]-4-[5-methyl-3-(trifluoromethyl)-1H-pyrazol-1-yl]pyrimidin-5-yl}-N-(2-hydroxyethyl)pyridine-3-carboxamide], for which the inhibition at 13 µM amounted to 100%.

Turning to `CNC(=O)c1cc(-c2cnc(Nc3ccc(F)c(Cl)c3)nc2-n2nc(C(F)(F)F)cc2C)cnc1OC` [Example 1103, 5-(2-(3-chloro-4-fluorophenylamino)-4-(5-methyl-3-(trifluoromethyl)-1H-pyrazol-1-yl)pyrimidin-5-yl)-2-methoxy-N-methylnicotinamide], the inhibition at 13 µM was found to be 76%.
